Experimental data reported in patent publication US20220202783A1, “Use Of ADAM9 Inhibitor As Immunomodulator” (China Medical University, priority 2019, published 2022).

Assays:
[1] = test system: human colon cancer cells SW620; test: cytokine RNA expression by RT-qPCR, SW620; assay type: cell-based; details: 12.5 μM, 24 hours
Experimental: (§1) We further analyzed whether the treatment of the ADAM9 inhibitor can stimulate tumor cells to secrete cytokines to activate the anti-tumor immunity of the ADAM9 inhibitor. In the experiment, human colon cancer cells SW620 and human pancreatic cancer cells PANC-1 were treated with 12.5 μM of the compound SW1, and human esophageal cancer cells C[…] were treated with 5 μM of the compound SW1. After 24 hours, the cells were collected and the RNA expression levels of CXCL10, CXCL11, CXC3CL1 and IFNB were detected by RT-qPCR. CXCL10, CXCL11 and […] are cytokines that promote the immune response of CD8^+ T cells, and IFNB is a cytokine with anti-cancer effects. Please refer to FIGS. 10A, 10B and 10C, which show the analysis results of the ADAM9 inhibitor stimulated tumor cells to secrete cytokines.

[2] = test system: human pancreatic cancer cells PANC-1; test: cytokine RNA expression by RT-qPCR, PANC-1; assay type: cell-based; details: 12.5 μM, 24 hours
Experimental: as §1

O=C1c2ccccc2C(=O)N1CCc1csc(Nc2nc(CCN3C(=O)c4ccccc4C3=O)cs2)n1 [SW1]
RNA expression levels of CXCL10, CXCL11, CXC3CL1 and IFNB [1]: increase the expressions of CXCL10, CXCL11, CXC3CL1 and IFNB | RNA expression levels of CXCL10, CXCL11, CXC3CL1 and IFNB [2]: increase the expressions of CXCL10, CXCL11, CXC3CL1 and IFNB
